# Patent publication US20230407243A1, “GENETIC PLATFORM TO INVESTIGATE THE FUNCTIONS OF BACTERIAL DRUG EFFLUX PUMPS” (priority 2022, published 2023)
# Assays:
# Type in all cases: cell-based, Escherichia coli
# E. coli ΔtolC = assay: microbe, parasite or virus in culture; settings: technical duplicate; for Minimum inhibitory concentration (MIC), ΔtolC: Table 10, without pore; for Minimum Inhibitory Concentration, ΔtolC: Table 13A, non-porinated
# How it was run: (§1)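 MHB II broth microdilution; inoculum from 18 h LB culture, PBS-adjusted to OD600 ~1.0, then 1/2000 dilution. Compounds 2-fold titrated, duplicates, DMSO solvent control. 18 h, 37 °C, 900 rpm; background-corrected OD600 end point.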
# E. coli EKO-35 = assay: microbe, parasite or virus in culture; settings: for Fold change of MICs: EKO-35 compared to EKO-35 (reference); for Minimum inhibitory concentration (MIC), EKO-35: Table 10, without pore; for Minimum inhibitory concentration (MIC), EKO-35 / Minimum Inhibitory Concentration, EKO-35: technical duplicate; for Minimum Inhibitory Concentration, EKO-35: Table 13A, non-porinated
# How it was run: as §1
# [1] = tested on: wild-type E. coli K-12 str. BW25113; assay: microbe, parasite or virus in culture; settings: technical duplicate; for Minimum inhibitory concentration (MIC), K-12: Table 10, without pore; for Minimum Inhibitory Concentration, K-12: Table 13A, non-porinated
# How it was run: as §1
# EKO-35-Pore = assay: MIC susceptibility profiling, porinated strain; settings: for Fold changes of MICs: EKO-35-Pore compared to EKO-35-Pore (reference); for Minimum inhibitory concentration (MIC), Pore EKO-35: Table 10, with pore; for Minimum inhibitory concentration (MIC), Pore EKO-35 / Minimum inhibitory concentration, EKO-35-Pore: technical duplicate; for Minimum inhibitory concentration, EKO-35-Pore: Table 14A, porinated
# How it was run: (§2)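 E. coli strains carrying a genomically integrated constitutive fhuA ΔC/Δ4L pore were grown 18 h in LB at 37 °C, then diluted 1/2000 in MHB II from OD600 ~1.0. Compounds were tested in duplicate, 2-fold serial titration, for 18 h at 37 °C with shaking. MIC came from OD600 with the pre-incubation background subtracted.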
# EKO-35 araC::acrB Pore = assay: MIC susceptibility profiling, porinated efflux platform; settings: for Fold changes of MICs: EKO-35 araC::acr-B Pore compared to EKO-35-Pore; for Minimum inhibitory concentration, EKO-35 araC::acrB Pore: Table 14A, porinated, technical duplicate
# How it was run: as §2
# EKO-35 araC::acrEF Pore = assay: as above; settings: for Fold changes of MICs: EKO-35 araC::acrEF Pore compared to EKO-35-Pore; for Minimum inhibitory concentration, EKO-35 araC::acrEF Pore: Table 14A, porinated, technical duplicate
# How it was run: as §2
# EKO-35 araC::mdtEF Pore = assay: as above; settings: for Fold changes of MICs: EKO-35 araC::mdtEF Pore compared to EKO-35-Pore; for Minimum inhibitory concentration, EKO-35 araC::mdtEF Pore: Table 14A, porinated, technical duplicate
# How it was run: as §2
# EKO-35 araC::macAB Pore = assay: as above; settings: for Fold changes of MICs: EKO-35 araC::macAB Pore compared to EKO-35-Pore; for Minimum inhibitory concentration: EKO-35 araC::macAB Pore, technical duplicate
# How it was run: as §2
# [2] = tested on: EKO-35 araC::acrBD408A Pore; assay: as above; settings: for Fold changes of MICs: EKO-35 araC::acrBD408A Pore compared to EKO-35-Pore; for Minimum inhibitory concentration: EKO-35 araC::acrBD408A Pore, technical duplicate
# How it was run: as §2
# EKO-35 araC::mexCD Pore = assay: as above; settings: for Fold changes of MICs: EKO-35 araC::mexCD Pore compared to EKO-35-Pore; for Minimum inhibitory concentration: EKO-35 araC::mexCD Pore, technical duplicate
# How it was run: as §2
# EKO-35 araC::emrAB Pore = assay: as above; settings: for Fold changes of MICs: EKO-35 araC::emrAB Pore compared to EKO-35-Pore; for Minimum inhibitory concentration: EKO-35 araC::emrAB Pore, technical duplicate
# How it was run: as §2
# EKO-35 araC::acrD Pore = assay: as above; settings: for Fold changes of MICs: EKO-35 araC::acrD Pore compared to EKO-35-Pore; for Minimum inhibitory concentration, EKO-35 araC::acrD Pore: Table 14A, porinated, technical duplicate
# How it was run: as §2
# EKO-35 araC::mdtBC Pore = assay: as above; settings: for Fold changes of MICs: EKO-35 araC::mdtBC Pore compared to EKO-35-Pore; for Minimum inhibitory concentration: EKO-35 araC::mdtBC Pore, technical duplicate
# How it was run: as §2
# EKO-35 araC::emrKY Pore = assay: as above; settings: for Fold changes of MICs: EKO-35 araC::emrKY Pore compared to EKO-35-Pore; for Minimum inhibitory concentration: EKO-35 araC::emrKY Pore, technical duplicate
# How it was run: as §2
# EKO-35 araC::mdtEF = assay: MIC susceptibility profiling, efflux platform; settings: for Fold change of MICs: EKO-35 araC::mdtEF compared to EKO-35; for Minimum Inhibitory Concentration, EKO-35 araC::mdtEF: Table 13A, non-porinated, technical duplicate
# How it was run: as §1
# EKO-35 araC::mdtBC = assay: MIC susceptibility profiling, efflux platform; settings: for Fold change of MICs: EKO-35 araC::mdtBC compared to EKO-35; for Minimum Inhibitory Concentration, EKO-35 araC::mdtBC: Table 13B, non-porinated, technical duplicate
# How it was run: as §1
# ΔtolC-Pore = assay: microbe, parasite or virus in culture; settings: technical duplicate; for Minimum inhibitory concentration (MIC), Pore ΔtolC: Table 10, with pore; for Minimum inhibitory concentration, ΔtolC-Pore: Table 14A, porinated
# How it was run: as §2
# wild-type (WT) K-12-Pore = assay: microbe, parasite or virus in culture; settings: technical duplicate; for Minimum inhibitory concentration (MIC), Pore K-12: Table 10, with pore; for Minimum inhibitory concentration, K-12 (WT)-Pore: Table 14A, porinated
# How it was run: as §2
structure (smiles),measurement,setting,value
N#CC(C#N)=NNc1ccc(-n2ccc(C(F)(F)F)n2)cc1 [compound 8],"Minimum inhibitory concentration (MIC), ΔtolC",E. coli ΔtolC,1.25 µg/mL
same,"Minimum Inhibitory Concentration, ΔtolC",E. coli ΔtolC,1.25 µg/mL
same,Fold change of MICs,E. coli EKO-35,1 fold
same,"Minimum inhibitory concentration (MIC), EKO-35",E. coli EKO-35,320 µg/mL
same,"Minimum Inhibitory Concentration, EKO-35",E. coli EKO-35,320 µg/mL
same,"Minimum inhibitory concentration (MIC), K-12",[1],640 µg/mL
same,"Minimum Inhibitory Concentration, K-12",[1],640 µg/mL
same,Fold changes of MICs,EKO-35-Pore,1 fold
same,"Minimum inhibitory concentration (MIC), Pore EKO-35",EKO-35-Pore,80 µg/mL
same,"Minimum inhibitory concentration, EKO-35-Pore",EKO-35-Pore,80 µg/mL
same,Fold changes of MICs,EKO-35 araC::acrB Pore,2 fold
same,"Minimum inhibitory concentration, EKO-35 araC::acrB Pore",EKO-35 araC::acrB Pore,160 µg/mL
same,Fold changes of MICs,EKO-35 araC::acrEF Pore,1 fold
same,"Minimum inhibitory concentration, EKO-35 araC::acrEF Pore",EKO-35 araC::acrEF Pore,40 µg/mL
same,Fold changes of MICs,EKO-35 araC::mdtEF Pore,1 fold
same,"Minimum inhibitory concentration, EKO-35 araC::mdtEF Pore",EKO-35 araC::mdtEF Pore,80 µg/mL
same,Fold changes of MICs,EKO-35 araC::macAB Pore,1 fold
same,Minimum inhibitory concentration,EKO-35 araC::macAB Pore,80 µg/mL
same,Fold changes of MICs,[2],1 fold
same,Minimum inhibitory concentration,[2],80 µg/mL
same,Fold changes of MICs,EKO-35 araC::mexCD Pore,1 fold
same,Minimum inhibitory concentration,EKO-35 araC::mexCD Pore,80 µg/mL
same,Fold changes of MICs,EKO-35 araC::emrAB Pore,1 fold
same,Minimum inhibitory concentration,EKO-35 araC::emrAB Pore,40 µg/mL
same,Fold changes of MICs,EKO-35 araC::acrD Pore,1 fold
same,"Minimum inhibitory concentration, EKO-35 araC::acrD Pore",EKO-35 araC::acrD Pore,40 µg/mL
same,Fold changes of MICs,EKO-35 araC::mdtBC Pore,1 fold
same,Minimum inhibitory concentration,EKO-35 araC::mdtBC Pore,80 µg/mL
same,Fold changes of MICs,EKO-35 araC::emrKY Pore,1 fold
same,Minimum inhibitory concentration,EKO-35 araC::emrKY Pore,80 µg/mL
same,Fold change of MICs,EKO-35 araC::mdtEF,1 fold
same,"Minimum Inhibitory Concentration, EKO-35 araC::mdtEF",EKO-35 araC::mdtEF,320 µg/mL
same,Fold change of MICs,EKO-35 araC::mdtBC,1 fold
same,"Minimum Inhibitory Concentration, EKO-35 araC::mdtBC",EKO-35 araC::mdtBC,320 µg/mL
same,"Minimum inhibitory concentration (MIC), Pore ΔtolC",ΔtolC-Pore,1.25 µg/mL
same,"Minimum inhibitory concentration, ΔtolC-Pore",ΔtolC-Pore,1.25 µg/mL
same,"Minimum inhibitory concentration (MIC), Pore K-12",wild-type (WT) K-12-Pore,160 µg/mL
same,"Minimum inhibitory concentration, K-12 (WT)-Pore",wild-type (WT) K-12-Pore,160 µg/mL
COC(=O)c1sc(N2CCCC2)c(C#N)c1-c1cccs1 [compound 10],"Minimum inhibitory concentration (MIC), ΔtolC",E. coli ΔtolC,10 µg/mL
same,"Minimum Inhibitory Concentration, ΔtolC",E. coli ΔtolC,10 µg/mL
same,Fold change of MICs,E. coli EKO-35,1 fold
same,"Minimum inhibitory concentration (MIC), EKO-35",E. coli EKO-35,160 µg/mL
same,"Minimum Inhibitory Concentration, EKO-35",E. coli EKO-35,160 µg/mL
same,"Minimum inhibitory concentration (MIC), K-12",[1],160 µg/mL
same,"Minimum Inhibitory Concentration, K-12",[1],160 µg/mL
same,Fold changes of MICs,EKO-35-Pore,1 fold
same,"Minimum inhibitory concentration (MIC), Pore EKO-35",EKO-35-Pore,10 µg/mL
same,"Minimum inhibitory concentration, EKO-35-Pore",EKO-35-Pore,10 µg/mL
same,efflux pump-mediated resistance vs EKO-35-Pore,EKO-35 araC::acrB Pore; AcrB with the pore,increased resistance
same,Fold changes of MICs,EKO-35 araC::acrB Pore,16 fold
same,"Minimum inhibitory concentration, EKO-35 araC::acrB Pore",EKO-35 araC::acrB Pore,160 µg/mL
same,efflux pump-mediated resistance vs EKO-35-Pore,EKO-35 araC::acrEF Pore; AcrEF with the pore,increased resistance
same,Fold changes of MICs,EKO-35 araC::acrEF Pore,16 fold
same,"Minimum inhibitory concentration, EKO-35 araC::acrEF Pore",EKO-35 araC::acrEF Pore,160 µg/mL
same,Fold changes of MICs,EKO-35 araC::mdtEF Pore,16 fold
same,efflux pump-mediated resistance vs EKO-35-Pore,EKO-35 araC::mdtEF Pore; MdtEF with the pore,increased resistance
same,"Minimum inhibitory concentration, EKO-35 araC::mdtEF Pore",EKO-35 araC::mdtEF Pore,160 µg/mL
same,Fold changes of MICs,EKO-35 araC::macAB Pore,1 fold
same,Minimum inhibitory concentration,EKO-35 araC::macAB Pore,10 µg/mL
same,Fold changes of MICs,[2],1 fold
same,Minimum inhibitory concentration,[2],10 µg/mL
same,Fold changes of MICs,EKO-35 araC::mexCD Pore,16 fold
same,Minimum inhibitory concentration,EKO-35 araC::mexCD Pore,160 µg/mL
same,efflux pump-mediated resistance vs EKO-35-Pore,"EKO-35 araC::mexCD Pore; MexCD, OM compromised",increased resistance
same,Fold changes of MICs,EKO-35 araC::emrAB Pore,16 fold
same,Minimum inhibitory concentration,EKO-35 araC::emrAB Pore,160 µg/mL
same,efflux pump-mediated resistance vs EKO-35-Pore,"EKO-35 araC::emrAB Pore; EmrAB, porinated strain",associated with resistance
same,Fold changes of MICs,EKO-35 araC::acrD Pore,16 fold
same,"Minimum inhibitory concentration, EKO-35 araC::acrD Pore",EKO-35 araC::acrD Pore,160 µg/mL
same,Fold changes of MICs,EKO-35 araC::mdtBC Pore,1 fold
same,Minimum inhibitory concentration,EKO-35 araC::mdtBC Pore,10 µg/mL
same,Fold changes of MICs,EKO-35 araC::emrKY Pore,1 fold
same,Minimum inhibitory concentration,EKO-35 araC::emrKY Pore,10 µg/mL
same,Fold change of MICs,EKO-35 araC::mdtEF,1 fold
same,"Minimum Inhibitory Concentration, EKO-35 araC::mdtEF",EKO-35 araC::mdtEF,160 µg/mL
same,Fold change of MICs,EKO-35 araC::mdtBC,1 fold
same,"Minimum Inhibitory Concentration, EKO-35 araC::mdtBC",EKO-35 araC::mdtBC,160 µg/mL
same,"Minimum inhibitory concentration (MIC), Pore ΔtolC",ΔtolC-Pore,5 µg/mL
same,"Minimum inhibitory concentration, ΔtolC-Pore",ΔtolC-Pore,5 µg/mL
same,"Minimum inhibitory concentration (MIC), Pore K-12",wild-type (WT) K-12-Pore,160 µg/mL
same,"Minimum inhibitory concentration, K-12 (WT)-Pore",wild-type (WT) K-12-Pore,160 µg/mL
